# Columns and labels:
# Test in all cases: HIV-1 RT Assay
# Conditions in all cases: pH 8.2
# [1] = biological target: Gag-Pol polyprotein [588-1027,K690N]/[588-1147,K690N] (Human immunodeficiency virus 1, UniProt P04585, K690N)
# [2] = biological target: Gag-Pol polyprotein [588-1027]/[588-1147] (Human immunodeficiency virus 1, UniProt P04585)
# [3] = biological target: Gag-Pol polyprotein [588-1127,Y768C]/[588-1147,Y768C] (Human immunodeficiency virus 1, UniProt P04585, Y768C)
SMILES,IC50 [1],IC50 [2],IC50 [3]
[O-][S+](Cc1[nH]c2ccccc2c1Sc1ccccc1)c1ccccc1 (configuration not stated) [2-[(benzenesulfinyl)methyl]-3-(phenylsulfanyl)-1H-indole],2570 nM,63 nM,2990 nM
[O-][S+](Cc1[nH]c2ccc(Cl)cc2c1Sc1ccccc1)c1ccccc1 (configuration not stated) [2-[(benzenesulfinyl)methyl]-5-chloro-3-(phenylsulfanyl)-1H-indole],,112 nM,
[O-][S+](Cc1[nH]c2ccccc2c1[S+]([O-])c1ccccc1)c1ccccc1 (configuration not stated) [3-(benzenesulfinyl)-2-[(benzenesulfinyl)methyl]-1H-indole],,72800 nM,
NC(=O)c1[nH]c2ccc(Cl)cc2c1[S+]([O-])c1ccccc1 (configuration not stated) [3-(benzenesulfinyl)-5-chloro-1H-indole-2-carboxamide],2760 nM,23 nM,1390 nM
NC(=O)c1[nH]c2ccc(Cl)cc2c1Sc1ccccc1 [5-chloro-3-(phenylsulfanyl)-1H-indole-2-carboxamide],1460 nM,14 nM,1040 nM
CNC(=O)c1[nH]c2ccc(Cl)cc2c1Sc1ccccc1 [5-chloro-N-methyl-3-(phenylsulfanyl)-1H-indole-2-carboxamide],,22 nM,
NC(=O)c1[nH]c2ccc(Cl)cc2c1S(=O)(=O)c1ccccc1 [5Cl3PhSO2-2IndolCONH2],116 nM,3 nM,71 nM
"CC(C)=CCN1Cc2cc(Cl)cc3[nH]c(=S)n(c23)C[C@@H]1C [(11S)-6-chloro-11-methyl-10-(3-methylbut-2-en-1-yl)-1,3,10-triazatricyclo[6.4.1.0^{4,13}]trideca-4,6,8(13)-triene-2-thione]",7320 nM,311 nM,39500 nM
"CN(C)C(=O)c1[nH]c2ccccc2c1Sc1ccccc1 [N,N-dimethyl-3-(phenylsulfanyl)-1H-indole-2-carboxamide]",,87600 nM,
CNC(=O)c1[nH]c2ccccc2c1Sc1ccccc1 [N-methyl-3-(phenylsulfanyl)-1H-indole-2-carboxamide],,746 nM,
COC(=O)c1[nH]c2ccccc2c1Sc1ccccc1 [methyl 3-(phenylsulfanyl)-1H-indole-2-carboxylate],,2500 nM,
COC(=O)c1[nH]c2ccc(Cl)cc2c1Sc1ccccc1 [methyl 5-chloro-3-(phenylsulfanyl)-1H-indole-2-carboxylate],,156 nM,

# — BindingDB's records for doi:10.1021/jm00061a022 (Merck Research Laboratories, 1993)
